Experimental data taken from patent US20150165756A1, “STENCILS” (DTG International GmbH, priority 2011, published 2015).
Values after ≈ are worked out from the molar mass of the structure shown.

Columns and labels:
Assay type in all cases: physicochemical
[1] = Octanol/water partition coefficient (log P)
Text: The octanol/water partition coefficient (log P) of the compounds tested according to this invention can e.g. be determined by accepted standard methods, such as OECD guideline (July 1995), “Test No. 107: Partition Coefficient (n-octanol/water): Shake Flask Method”, OECD Guidelines for the Testing of Chemicals, Section 1: Physical-Chemical properties, OECD Publishing. The log P value may also be determined according to the Draft OECD guideline OECD (2000), see OECD Draft guideline for the Testing of Chemicals: 122 Partition Coefficient (n-Octanol/Water): pH-Metric Method for Ionisable Substances.
Compound (A) can be formulated together with various oily components (C) as aqueous based, liquid compositions with higher concentration of the drug substance. These formulations can be easily applied to different animal species and human beings via application routes like the parenteral route. The compound (A) is a lipophilic compound with limited wettability and solubility in aqueous media. The lipophilicity can be expressed by the log P value, which is approximately 3 for compound (A).

[2] = Stability of emulsions with soybean oil/MCT oily component (Example 3); details: oily component comprising soybean oil and MCT
Experimental: The oily phase containing the compound (A) was then mixed with an emulsifier (1%-3% by weight) of e.g. Lipoid S 75 Lipoid GmbH Germany, and afterwards with the aqueous phase containing a small amount (2.5% by weight) of a tonicity adjusting agent (Glycerol).
Different compositions were prepared containing about 10% to 20% of the oily component (C) and about 70 to 90% of water. These compositions were mixed by using an Ultra-Turrax-homogenizer followed by one to 10 cycles of high pressure homogenisation. These emulsions prepared are then characterized by microscopic analysis and by dynamic light-scattering methods (Horiba LB 500). Furthermore, laser diffraction experiments were made with the emulsions ([…]) and electro-acoustic experiments were performed (Dispersion Technology DT 300; Malvern Zetasizer Nano ZS).
By using the above-mentioned oily component (comprising soybean oil and MCT), it was possible to prepare stable emulsions of compound (A) containing up to 2 mg of compound (A) per ml of the emulsion. The stability of the emulsions prepared with compound (A) can be described by the Zeta-function which describes the degree of repulsion of particles having similar charges. The Zeta-potential of the emulsions were tested by acoustic and optical methods described in the literature.

[3] = Maximal solubility in oily components (mixing, PTFE filtration, HPLC analysis); details: oil or lipid, thermodynamic from solid
Experimental: As pyrazolopyrimidine component, (6-Bromo-pyrazolo[1,5-a]-pyrimidine-2-yl)-(1(R)-methyl-3,4-dihydro-1H-isoquinoline-2-yl)-methanone was formulated with various oily components with higher concentrations of the drug substance using specific amounts of oily components (C). The following compositions were prepared by mixing the respective oily component (C) and the pyrazolopyrimidine compound, followed by filtration (PTFE-filter) and then analysis by High Performance Liquid Chromatography.
A liquid mixture was prepared by using 100 g of soybean oil and 100 g of MCT. The soybean oil is commercially available by Caelo (Caesar & Lorenz GmbH, Hilden, Germany). The component MCT is also commercially available (e.g. by Caelo). The solubility of compound (A) in this 50:50 (w/w) mixture of two oily components (C1) and (C2) was tested. Three different compositions were prepared (containing 1 mg/ml, 1.5 mg/ml and 2.0 mg/ml) of compound (A).

[4] = Solubility of compound (A) in aqueous media; details: room temperature
Experimental: (6-Bromo-pyrazolo[1,5-a]pyrimidine-2-yl)-(1(R)-methyl-3,4-dihydro-1H-isoquinoline-2-yl)-methanone, and which is of particular interest and has the formula (A) as described above. This compound (A) is the R-enantiomer, but both isomers (R and S) were prepared by classical chemical synthesis. The compound (A) was tested in various compositions (formulations) inter alia for CNS-applications. The compound (A) is a small molecule having a molecular weight of about 360 g/Mol, but is very little soluble in aqueous media at room temperature (about 0.001 to 0.01 mg/ml).

- logP [1]: ~3
- content of compound (A) in stable emulsions [2]: up to 2 mg per ml
- solubility ([3]; 50:50 (w/w) mixture of soybean oil and MCT, read-out: maximum solubility in mixture of oily components): 8000 µg/mL (≈ 21.5 mM)
- solubility ([3]; 25° C., MCT, read-out: maximal solubility in MCT): 12000 µg/mL (≈ 32.3 mM)
- solubility ([3]; 25° C., castor oil, read-out: maximal solubility in castor oil): 47000 µg/mL (≈ 127 mM)
- solubility ([3]; 25° C., olive oil, read-out: maximal solubility in olive oil): 6000 µg/mL (≈ 16.2 mM)
- solubility ([3]; 25° C., soybean oil, read-out: maximal solubility in soybean oil): 7000 µg/mL (≈ 18.9 mM)
- solubility [4]: 1 to 10 µg/mL (≈ 0.00269 to 0.0269 mM)
Structure (SMILES): C[C@@H]1c2ccccc2CCN1C(=O)c1cc2ncc(Br)cn2n1 [Compound (A), (6-Bromo-pyrazolo[1,5-a]pyrimidine-2-yl)-(1(R)-methyl-3,4-dihydro-1H-isoquinoline-2-yl)-methanone]
